Reference: patent US11319283B2, “Substituted cyclobutylbenzene compounds as indoleamine 2,3-dioxygenase (IDO) inhibitors” (MERCK SHARP & DOHME CORP., priority 2017, dated 2022)

Assays:
TDO = molecular target: T1, TDO (Homo sapiens, UniProt P48775); test: TDO Cellular Assay in Frozen SW48 Cells; assay type: cell-based; conditions: 300 uM L-tryptophan, about 48 hours, fluorescence readout
T1 construct: endogenous in cells; host or cells: SW48 cells (A2780 cells as control with minimal TDO activity)
Protocol: TDO Cellular Assay in Frozen SW48 Cells
SW48 cells were cultured in complete RPMI culture medium (90% RPMI, 10% heat-inactivated fetal bovine serum).
Compounds to be tested were serially diluted in ten 3-fold steps in DMSO starting from 10 mM DMSO stocks in Echo low volume plate(s). […] The cells were spun down at 350 g in a table top centrifuge for 5 minutes and suspended in same volume of RPMI assay medium. […] Sterile L-tryptophan (Sigma, Cat # T0254) was added to the cells with final concentration of 300 uM.
SW48 and A2780 cells were dispensed to the respective wells of 384-well assay plates containing the compounds. The plates were incubated for about 48 hours at a 37° C., 5% CO2 incubator. Afterwards, 12 μL of 0.5 M ethyl isonipecotate (Sigma Aldrich, Cat # E33505) in dimethyl sulfoxide were added into each well and the plates were sealed and incubated at 37° C. without CO2 overnight. The plates were centrifuged for 1 minute at 200×g. The resulting fluorescence was measured in a Spectramax plate reader (Molecular Devices) with a 400 nm excitation filter and a 510 nm emission filter.
The fluorescence intensity of each well was corrected for the background observed in wells with A2780 cells and was expressed as a fraction of the intensity observed in wells of SW48 cells and DMSO only. Potencies were calculated by linear least squares fit to the four parameter logistic IC50 equation.

IDO1 = IDO1 (Homo sapiens, UniProt P14902); test: IDO1 Cellular Assay in Hela Cells Stimulated with IFNγ; assay type: cell-based; set-up: endogenous in cells; host or cells: HeLa cells stimulated with IFNγ (100 ng/mL); conditions: Hela cells stimulated with IFNγ 100 ng/mL, 300 uM L-tryptophan, about 48 hours, fluorescence readout
Protocol: IDO1 Cellular Assay in Hela Cells Stimulated with IFNγ
Hela cells were cultured in complete Hela culture medium (90% EMEM, 10% heat-inactivated fetal bovine serum) and expanded to about 1×10^9 cells. The cells were then collected and frozen down at 1×10^7 cells/vial in 1 mL frozen medium (90% complete Hela culture medium, 10% DMSO)
Compounds to be tested were serially diluted in ten 3-fold steps in DMSO starting from 10 mM DMSO stocks in Echo low volume plate(s).
Frozen Hela cells were thawed and transferred into Hela assay medium (99% complete Hela culture medium, 1% Pen/Strep) with 20 mL medium/vial of cells. The cells were spun down at 250 g in a table top centrifuge for 5 min and suspended in same volume of Hela assay medium. The cells were then counted and adjusted to a density of 2×10^5 cells/ml in Hela assay medium. Sterile L-tryptophan were added to the cells with final concentration of 300 uM L-tryptophan. A small aliquot (2 mL/plate) of Hela cells were set aside and were not treated with IFNγ, to serve as the Max-E control.
Hela cells with and without IFNγ were dispensed to the respective wells of 384-well assay plates containing the compounds. The plates were incubated for about 48 hours at a 37° C., 5% CO2 incubator. Afterwards, […] of 0.5 M methyl isonipecotate in dimethyl sulfoxide were added into each well and the plates were sealed and incubated at 37° C. without CO2 overnight. The plates were centrifuged for 1 min at 200×g. The resulting fluorescence was measured in a Spectramax plate reader (Molecular Devices) with a 400 nm excitation filter and a 510 nm emission filter.
Potencies were calculated by linear least squares fit to the four parameter logistic IC50 equation.

T1 sequence (P48775 whole entry): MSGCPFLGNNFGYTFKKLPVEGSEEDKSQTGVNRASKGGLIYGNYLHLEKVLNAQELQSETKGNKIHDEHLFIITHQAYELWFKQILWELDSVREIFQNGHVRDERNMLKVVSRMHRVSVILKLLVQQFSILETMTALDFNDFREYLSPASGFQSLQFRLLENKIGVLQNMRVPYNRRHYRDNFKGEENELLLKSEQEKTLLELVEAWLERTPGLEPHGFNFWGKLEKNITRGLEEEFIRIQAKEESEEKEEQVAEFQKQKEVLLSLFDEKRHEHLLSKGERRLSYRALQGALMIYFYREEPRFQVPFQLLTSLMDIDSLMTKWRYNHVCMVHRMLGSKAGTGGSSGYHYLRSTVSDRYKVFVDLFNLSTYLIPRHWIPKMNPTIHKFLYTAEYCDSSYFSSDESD
Sequence of IDO1 (P14902 whole entry): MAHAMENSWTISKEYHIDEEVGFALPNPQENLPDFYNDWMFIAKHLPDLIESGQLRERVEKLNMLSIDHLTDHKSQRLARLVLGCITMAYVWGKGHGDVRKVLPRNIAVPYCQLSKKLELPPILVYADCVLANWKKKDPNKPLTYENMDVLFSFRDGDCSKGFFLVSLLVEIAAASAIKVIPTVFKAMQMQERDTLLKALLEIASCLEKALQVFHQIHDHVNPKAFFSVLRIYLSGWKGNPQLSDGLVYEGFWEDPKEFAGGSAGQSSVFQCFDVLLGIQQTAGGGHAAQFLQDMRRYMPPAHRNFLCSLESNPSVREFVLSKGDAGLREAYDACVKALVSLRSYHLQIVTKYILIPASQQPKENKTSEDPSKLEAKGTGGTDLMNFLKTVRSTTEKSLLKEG

Compound: O=C(Nc1ccc(C2(C(=O)Nc3ccc(F)c(F)c3)CCC2)cc1)c1cccc(Cl)c1 [Example 26, 3-chloro-N-(4-{1-[(3,4-difluorophenyl)carbamoyl]cyclobutyl}phenyl) benzamide]
- IC50 (TDO): ≥ 10000 nM
- IC50 (IDO1): 3 nM

Compound: O=C(Nc1ccc(C2(C(=O)Nc3ccc(F)nc3)CCC2)cc1)c1cccc(Cl)c1 [Example 29, 3-chloro-N-(4-{1-[(6-fluoropyridin-3-yl)carbamoyl]cyclobutyl}phenyl)benzamide]
- IC50 (TDO): ≥ 10000 nM
- IC50 (IDO1): 4 nM

Compound: CCC1CC1NC(=O)C1(c2ccc(NC(=O)c3cccc(Cl)c3)cc2)CCC1 (centres unmarked) [Example 31, 3-chloro-N-(4-{1-[(2-ethylcyclopropyl)carbamoyl]cyclobutyl}phenyl)benzamide]
- IC50 (TDO): ≥ 10000 nM
- IC50 (IDO1): 8 nM

Compound: CCOC1CC1NC(=O)C1(c2ccc(NC(=O)c3cccc(Cl)c3)cc2)CCC1 (centres unmarked) [Example 36, 3-chloro-N-(4-{1-[(2-ethoxycyclopropyl)carbamoyl]cyclobutyl}phenyl) benzamide]
- IC50 (TDO): ≥ 10000 nM
- IC50 (IDO1): 24 nM

Compound: O=C(Nc1ccc(C2(C(=O)NC3CC3C(F)F)CCC2)cc1)c1cccc(Cl)c1 (centres unmarked) [Example 37, 3-chloro-N-[4-(1-{[2-(difluoromethyl)cyclopropyl]carbamoyl}cyclobutyl)phenyl] benzamide]
- IC50 (TDO): ≥ 10000 nM
- IC50 (IDO1): 28 nM

Compound: O=C(Nc1ccc(C2(C(=O)NC3CCCOC3)CCC2)cc1)c1cccc(Cl)c1 (centres unmarked) [Example 40, 3-chloro-N-(4-{1-[(oxan-3-yl)carbamoyl]cyclobutyl}phenyl)benzamide]
- IC50 (TDO): ≥ 10000 nM
- IC50 (IDO1): 39 nM

Compound: CC1(C)CC(NC(=O)C2(c3ccc(NC(=O)c4cccc(Cl)c4)cc3)CCC2)CCO1 (centres unmarked) [Example 42, 3-chloro-N-(4-{1-[(2,2-dimethyloxan-4-yl)carbamoyl]cyclobutyl}phenyl)benzamide]
- IC50 (TDO): ≥ 10000 nM
- IC50 (IDO1): 119 nM

Compound: O=C(Nc1ccc(C2(C(=O)NC3CN(CC(F)(F)F)C3)CCC2)cc1)c1cccc(Cl)c1 [Example 44, 3-chloro-N-[4-(1-{[1-(2,2,2-trifluoroethyl)azetidin-3-yl]carbamoyl}cyclobutyl)phenyl]benzamide]
- IC50 (TDO): ≥ 10000 nM
- IC50 (IDO1): 709 nM

Compound: CCOC(C)CNC(=O)C1(c2ccc(NC(=O)c3cccc(Cl)c3)cc2)CCC1 (centres unmarked) [Example 45, 3-Chloro-N-(4-(1-((2-ethoxypropyl)carbamoyl)cyclobutyl)phenyl)benzamide]
- IC50 (TDO): ≥ 10000 nM
- IC50 (IDO1): 58 nM

Compound: O=C(Nc1ccc(C2(C(=O)NCC(F)(F)F)CCC2)cc1)c1cccc(Cl)c1 [Example 49, 3-chloro-N-(4-{1-[(2,2,2-trifluoroethyl)carbamoyl]cyclobutyl}phenyl) benzamide]
- IC50 (TDO): ≥ 10000 nM
- IC50 (IDO1): 126 nM

Compound: O=C(Nc1ccc(C2(C(=O)N[C@H]3CCOC3)CCC2)cc1)c1cccc(Cl)c1 [Example 51, 3-chloro-N-[4-(1-{[(3S)-oxolan-3-yl]carbamoyl}cyclobutyl)phenyl]benzamide]
- IC50 (TDO): ≥ 10000 nM
- IC50 (IDO1): 404 nM

Compound: O=C(Nc1ccc(C2(C(=O)N[C@@H]3CCOC3)CCC2)cc1)c1cccc(Cl)c1 [Example 52, 3-chloro-N-[4-(1-{[(3R)-oxolan-3-yl]carbamoyl}cyclobutyl)phenyl]benzamide]
- IC50 (TDO): ≥ 10000 nM
- IC50 (IDO1): 427 nM

Compound: O=C(Nc1ccc(C2(C(=O)NS(=O)(=O)c3ccccc3)CCC2)cc1)c1cccc(Cl)c1 [Example 53, 3-chloro-N-(4-{1-[(phenylsulfonyl)carbamoyl]cyclobutyl}phenyl) benzamide]
- IC50 (TDO): ≥ 10000 nM
- IC50 (IDO1): 834 nM

Compound: O=C(Nc1cccc(Cl)c1F)c1ccc(C2(C(=O)Nc3ccc(F)cn3)CCC2)cc1 [Example 59, N-(3-chloro-2-fluorophenyl)-4-(1-((5-fluoropyridin-2-yl)carbamoyl)cyclobutyl)benzamide]
- IC50 (TDO): ≥ 10000 nM
- IC50 (IDO1): 17 nM

Compound: O=C(NC1CCCCC1)c1ccc(C2(C(=O)Nc3ccc(F)cn3)CCC2)cc1 [Example 60, N-cyclohexyl-4-{1-[(5-fluoropyridin-2-yl)carbamoyl]cyclobutyl} benzamide]
- IC50 (TDO): ≥ 10000 nM
- IC50 (IDO1): 489 nM

Compound: O=C(NC1CCC(F)(F)CC1)c1ccc(C2(C(=O)Nc3ccc(F)cn3)CCC2)cc1 [Example 61, N-(4,4-difluorocyclohexyl)-4-{1-[(5-fluoropyridin-2-yl)carbamoyl]cyclobutyl} benzamide]
- IC50 (TDO): ≥ 10000 nM
- IC50 (IDO1): 1810 nM

Compound: CCO[C@@H]1C[C@@H]1NC(=O)C1(c2ccc(NC(=O)c3cccc(Cl)c3)cc2)CC(F)(F)C1 [Example 64, 3-chloro-N-[4-(1-{[(1S,2R)-2-ethoxycyclopropyl]carbamoyl}-3,3-difluorocyclobutyl)phenyl] benzamide]
- IC50 (TDO): ≥ 10000 nM
- IC50 (IDO1): 37 nM

Compound: CCOC1CC1NC(=O)C1(c2ccc(NC(=O)c3cccc(Cl)c3)cc2)CC(F)(F)C1 (centres unmarked) [Example 65]
- IC50 (TDO): ≥ 10000 nM
- IC50 (IDO1): 71 nM

Compound: CCO[C@H]1C[C@H]1NC(=O)C1(c2ccc(NC(=O)c3cccc(Cl)c3)cc2)CC(F)(F)C1 [Example 66, 3-chloro-N-[4-(1-{[(1R,2S)-2-ethoxycyclopropyl]carbamoyl}-3,3-difluorocyclobutyl)phenyl] benzamide]
- IC50 (TDO): ≥ 10000 nM
- IC50 (IDO1): 89 nM

Compound: CCO[C@H]1C[C@@H]1NC(=O)C1(c2ccc(NC(=O)c3cccc(Cl)c3)cc2)CC(F)(F)C1 [Example 67, 3-chloro-N-[4-(1-{[(lS,2S)-2-ethoxycyclopropyl]carbamoyl}-3,3-difluorocyclobutyl)phenyl] benzamide]
- IC50 (TDO): ≥ 10000 nM
- IC50 (IDO1): 207 nM

Compound: CCO[C@@H]1C[C@H]1NC(=O)C1(c2ccc(NC(=O)c3cccc(Cl)c3)cc2)CC(F)(F)C1 [Example 68, 3-chloro-N-[4-(1-{[(1R,2R)-2-ethoxycyclopropyl]carbamoyl}-3,3-difluorocyclobutyl)phenyl] benzamide]
- IC50 (TDO): ≥ 10000 nM
- IC50 (IDO1): 1440 nM

Compound: O=C(Nc1ccc(C2(C(=O)NCCC(F)(F)F)CC(F)(F)C2)cc1)c1cccc(Cl)c1 [Example 69, 3-chloro-N-(4-{3,3-difluoro-1-[(3,3,3-trifluoropropyl)carbamoyl]cyclobutyl}phenyl) benzamide]
- IC50 (TDO): ≥ 10000 nM
- IC50 (IDO1): 56 nM

Compound: O=C(Nc1ccc(C2(C(=O)Nc3ccc(F)cc3)CC(F)(F)C2)cc1)c1cccc(F)c1 [Example 72, N-(4-(3,3-Difluoro-1-((4-fluorophenyl)carbamoyl)cyclobutyl)phenyl)-3-fluorobenzamide]
- IC50 (TDO): ≥ 10000 nM
- IC50 (IDO1): 4 nM

Compound: N#Cc1cccc(C(=O)Nc2ccc(C3(C(=O)Nc4ccc(F)cc4)CC(F)(F)C3)cc2)c1 [Example 73, 3-cyano-N-(4-{3,3-difluoro-1-[(4-fluorophenyl)carbamoyl]cyclobutyl}phenyl) benzamide]
- IC50 (TDO): ≥ 10000 nM
- IC50 (IDO1): 4 nM

Compound: O=C(Nc1ccc(C2(C(=O)Nc3ccc(F)cc3)CC(F)(F)C2)cc1)c1cc(Cl)ccn1 [Example 74, 4-chloro-N-(4-{3,3-difluoro-1-[(4-fluorophenyl)carbamoyl]cyclobutyl}phenyl) pyridine-2-carboxamide]
- IC50 (TDO): ≥ 10000 nM
- IC50 (IDO1): 5 nM

Compound: O=C(Nc1ccc(C2(C(=O)Nc3ccc(F)cc3)CC(F)(F)C2)cc1)c1cncc(Cl)c1 [Example 75, 5-chloro-N-(4-{3,3-difluoro-1-[(4-fluorophenyl)carbamoyl]cyclobutyl}phenyl) pyridine-3-carboxamide]
- IC50 (TDO): ≥ 10000 nM
- IC50 (IDO1): 10 nM

Compound: O=C(Nc1ccc(C2(C(=O)Nc3ccc(F)cc3)CC(F)(F)C2)cc1)c1ccnc(C(F)(F)F)c1 [Example 76, N-(4-{3,3-difluoro-1-[(4-fluorophenyl)carbamoyl]cyclobutyl}phenyl)-2-(trifluoromethyl) pyridine-4-carboxamide]
- IC50 (TDO): 7640 nM
- IC50 (IDO1): 20 nM

Compound: CCCNC(=O)C1(c2ccc(NC(=O)c3ccc(F)c(Cl)c3)cc2)CCC1 [Example 78, 3-chloro-4-fluoro-N-{4-[1-(propylcarbamoyI)cyclobutyl]phenyl}benzamide]
- IC50 (TDO): ≥ 10000 nM
- IC50 (IDO1): 10 nM
